Patent US5342853A, “Method of using nor-verapamil and nor-gallopamil as anti-arteriosclerotics” (priority 1989, dated 1994)

Experiments:
[1] = tested on: atheromas (carotid artery); assay: Antiatherogenic action on rabbits: carotid atheromas induced by electrical stimulation plus cholesterol-rich diet, 28 days; format: in vivo, male rabbits; conditions: for Action against arteriosclerosis (in words): general statement; for Inhibition of the development of atheromas (in words): compared with verapamil; for Maximum number of cell layers in the atheromas / Maximum number of cell layers in the atheromas, % change: 28 days; for Maximum number of cell layers in the atheromas, % change: vs untreated control
Procedure: (§1) Local atheromas are induced by the method of E. Betz and W. Schlote (Basic Res. Cardiol. 1979, 74, 10-20) by electrical stimulation of the carotid artery while, at the same time, feeding a cholesterol-rich diet (2%). At the end of the test period, the atheromas formed under the anode of the stimulating electrodes are removed and their size is determined histologically. Used as a measure of the size of the atheromas is the maximum number of their cell layers determined microscopically from serial sections. The extent of the antiarteriosclerotic action is established by comparison with untreated control animals. Verapamil and gallopamil are used as comparative substances.

[2] = as above; format: in vivo, male rabbits; conditions: rabbit, in vivo; rabbits, oral part of the daily dose (given with s.c. doses); read-out: Highest tolerated daily dose, oral
Procedure: as §1

[3] = rabbits, daily dose 2 × 1.0 mg/kg s.c. + 21.5 mg/kg oral, verapamil, nor-gallopamil *P < 0.05, nor-verapamil P = 0.682
[4] = rabbits, daily dose 2 × 1.0 mg/kg s.c. + 21.5 mg/kg oral
[5] = rabbits, highest tolerated daily dose 2 × 0.215 mg/kg s.c. + 4.64 mg/kg oral

Row | Compound | Action against arteriosclerosis (in words) [1] | Inhibition of the development of atheromas (in words) ([1]; rabbits) | Maximum number of cell layers in the atheromas [1, 3] | Maximum number of cell layers in the atheromas, % change [1, 4] [%] | MTD at 672 h [2] [mg/kg] | Antiatherogenic effect (in words) ([1]; rabbits, at the highest tolerated daily dose) | Maximum number of cell layers in the atheromas [1, 5] | Maximum number of cell layers in the atheromas, % change [1, 5]
1 | COc1ccc(CCNCCCC(C#N)(c2cc(OC)c(OC)c(OC)c2)C(C)C)cc1OC (centres unmarked) [Nor-gallopamil] | very good action against arteriosclerosis | inhibit the development of atheromas to about the same extent as verapamil | 12 ± 1.3 | -44 | – | – | – | –
2 | COc1ccc(CCN(C)CCCC(C#N)(c2cc(OC)c(OC)c(OC)c2)C(C)C)cc1OC (centres unmarked) [Gallopamil, 5-[N-(3,4-dimethoxyphenethyl)-N-methylamino]-2-(3,4,5-trimethoxyphenyl]-2-isopropyl-valeronitrile] | – | – | – | – | 4.64 | no antiatherogenic effect | 15 ± 0.99 | +7.1%
3 | COc1ccc(CCNCCCC(C#N)(c2ccc(OC)c(OC)c2)C(C)C)cc1OC (centres unmarked) [Nor-verapamil, 5-[N-(3,4-dimethoxyphenethyl)-amino]-2-(3,4-dimethoxyphenyl)-2-isopropyl-valeronitrile] | very good action against arteriosclerosis | inhibit the development of atheromas to about the same extent as verapamil | 8.1 ± 1.3 | -40 | – | – | – | –
4 | COc1ccc(CCN(C)CCCC(C#N)(c2ccc(OC)c(OC)c2)C(C)C)cc1OC (centres unmarked) [Verapamil, 5-[N-(3,4-dimethoxyphenethyl)-N-methylamino]-2-(3,4-dimethoxyphenyl)-2-isopropyl-valeronitrile] | – | – | 3.8 ± 0.37 | -51 | – | – | – | –
